Measurements taken from ChEMBL document CHEMBL1138760, “Conformationally constrained analogues of diacylglycerol (DAG). 23. Hydrophobic ligand-protein interactions versus ligand-lipid interactions of DAG-lactones with protein kinase C (PK-C)” (J Med Chem, 2004).
pKi: −log10 of the molar value.

Columns and labels:
[1] = molecular target: Protein kinase C delta type (Homo sapiens, UniProt Q05655); test: Binding affinity for isolated C1b domain of protein kinase C-delta
[2] = Binding affinity for protein kinase C-alpha C1a and C1b domains

Chain of Protein kinase C delta type (Q05655 whole entry, the tested form may be a part): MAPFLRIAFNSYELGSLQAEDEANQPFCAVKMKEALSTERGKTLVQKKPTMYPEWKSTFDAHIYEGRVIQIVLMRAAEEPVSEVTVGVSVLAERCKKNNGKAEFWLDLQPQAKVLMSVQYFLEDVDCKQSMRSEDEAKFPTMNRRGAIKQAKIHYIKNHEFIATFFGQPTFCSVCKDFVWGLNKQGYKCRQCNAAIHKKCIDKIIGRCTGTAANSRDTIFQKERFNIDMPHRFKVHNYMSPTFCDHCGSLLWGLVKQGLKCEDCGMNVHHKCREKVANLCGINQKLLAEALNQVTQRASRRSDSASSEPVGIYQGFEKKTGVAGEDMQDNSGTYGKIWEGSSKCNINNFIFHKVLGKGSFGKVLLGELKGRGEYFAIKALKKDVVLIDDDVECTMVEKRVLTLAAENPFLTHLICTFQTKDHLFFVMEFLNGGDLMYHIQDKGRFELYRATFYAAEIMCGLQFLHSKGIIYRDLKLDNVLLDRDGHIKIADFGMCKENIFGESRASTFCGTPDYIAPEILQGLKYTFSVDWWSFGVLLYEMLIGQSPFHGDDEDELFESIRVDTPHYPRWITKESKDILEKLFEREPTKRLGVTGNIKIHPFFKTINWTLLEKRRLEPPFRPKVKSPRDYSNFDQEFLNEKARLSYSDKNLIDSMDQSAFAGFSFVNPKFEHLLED

| SMILES | pKi [1] | pKi [2] |
| --- | --- | --- |
| CC(C)C(C/C=C1/C(=O)OC(CO)(COC(=O)C(C)(C)C)C1(C)C)C(C)C (stereo not drawn) | 5.46 |  |
| CC(C)C(C/C=C1\CC(CO)(COC(=O)C(C)(C)C)OC1=O)C(C)C (stereo not drawn) |  | 7.95 |
| CC(C)CC(C/C=C1\CC(CO)(COC(=O)C(C)(C)C)OC1=O)CC(C)C (stereo not drawn) | 9.05 | 8.49 |
| CC(C)C(C/C=C1/CC(CO)(COC(=O)C(C)(C)C)OC1=O)C(C)C (stereo not drawn) |  | 8.08 |
| CC(C)C(C/C=C1\C(=O)OC(CO)(COC(=O)C(C)(C)C)C1(C)C)C(C)C (stereo not drawn) | 5.84 |  |
| CC(C)CC(C/C=C1/CC(CO)(COC(=O)C(C)(C)C)OC1=O)CC(C)C (stereo not drawn) | 8.94 | 8.54 |
